Data published in article PMC11579541, “In vitro, in vivo, and in silico approaches for evaluating the preclinical DMPK profiles of ammoxetine, a novel chiral serotonin and norepinephrine reuptake inhibitor” (Frontiers in Pharmacology, 2024).
Values joined by “and” are separate entries in the source; they are usually repeats but may differ in a detail not shown here. Equal values may be shown once. Read-outs that look alike come from different tables or passages of the source.

Legend:
CYP 2C19 = CYP 2C19 (Homo sapiens, UniProt P33261); assay: Phenotyping with recombinant human CYP 2C19; format: in vitro ADME; set-up: purchased BD (Woburn, USA); conditions: 5 μmol/L, 25 pmol/mL CYP, 1 h
CYP 2C19, sequence (P33261 whole entry): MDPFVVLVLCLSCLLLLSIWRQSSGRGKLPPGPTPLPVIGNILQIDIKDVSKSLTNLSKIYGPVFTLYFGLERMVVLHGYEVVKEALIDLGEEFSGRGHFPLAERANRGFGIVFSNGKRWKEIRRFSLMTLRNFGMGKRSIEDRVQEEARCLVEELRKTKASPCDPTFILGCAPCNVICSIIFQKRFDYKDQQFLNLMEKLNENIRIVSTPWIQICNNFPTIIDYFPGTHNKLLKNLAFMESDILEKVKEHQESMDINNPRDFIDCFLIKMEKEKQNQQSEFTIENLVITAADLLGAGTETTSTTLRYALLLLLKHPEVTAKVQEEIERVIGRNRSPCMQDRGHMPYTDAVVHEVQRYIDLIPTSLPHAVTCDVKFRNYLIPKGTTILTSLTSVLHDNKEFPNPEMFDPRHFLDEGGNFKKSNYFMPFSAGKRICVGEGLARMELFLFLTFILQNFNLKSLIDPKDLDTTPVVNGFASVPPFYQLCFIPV
Experimental: Ammoxetine (final concentration 5 μmol/L) was incubated with recombinant human CYP 3A4, CYP 1A2, CYP 2C9, CYP 2C19, and CYP 2D6 (final concentration 25 pmol/mL) in a 5 mmol/L K2HPO4 buffer at pH 7.4. The incubations were performed in quintuplicate. NADPH (final concentration 1 mmol/L) was added to initiate the incubation process. The mixture was then incubated at 37°C for 1 h. To stop the reaction, 200 μL of ice-cold acetonitrile/methanol (1:1, v/v) containing 500 ng/mL of L-phencynonate (IS) was added. The samples were vortexed for 2 min and centrifuged at 13,800×g and 4°C for 10 min. The supernatants obtained were analyzed using an LC-MS-MS method. To establish appropriate controls, zero-time controls and blank controls in the absence of NADPH were set up in parallel.

PK study in rats = format: in vivo, SD rats; conditions: rat, plasma; for CL/F: read-out: CLz/F (converted); for MRT last: read-out: MRT(0-t); for MRT inf: read-out: MRT(0-∞); for Vd/F: read-out: Vz/F; for half-life: read-out: t1/2z (converted)
Experimental: For the PK studies in rats and dogs, a total of 18 SD rats and 15 male beagle dogs were randomly divided into three groups, with six rats or five dogs per group, respectively. Prior to the experiments, all animals underwent a 12-h fasting period, while having free access to water. The animals were administered single oral doses of ammoxetine in three different dose levels: 8 mg/kg, 20 mg/kg, and 50 mg/kg for rats, and 2 mg/kg, 5 mg/kg, and 12.5 mg/kg for dogs, representing low, medium, and high doses. Serial blood samples were collected from the rats at 0, 2, 5, 15, and 30 min, as well as 1, 2, 4, 6, 8, 12, and 24 h post-dosing. For the dogs, blood samples were collected at 0, 5, 15, 30, and 45 min, as well as 1, 2, 4, 6, 8, 12, and 24 h post-dosing. Approximately 0.3 mL of blood was collected from the rats, while 2 mL of blood was collected from the dogs. The blood samples were collected into heparinized tubes. Following centrifugation, plasma samples were obtained and stored at −30°C until further analysis.
To determine the concentration of ammoxetine, 100 μL of L-phencynonate (IS, 50 ng/mL) and 300 μL of methanol were added to 100 μL of plasma samples from rats or dogs. After thorough vortexing, the mixture was centrifuged at 13,800×g for 10 min. The supernatants were then subjected to analysis using LC-MS-MS methods. PK parameters were calculated using DAS (Drug And Statistics for Windows) version 2.0, developed by the Shanghai University of Traditional Chinese Medicine, Shanghai, China. The F was determined by comparing the plasma area under the concentration-time curve (AUC) values after oral (p.o.) and intravenous (i.v.) administration of ammoxetine. F was calculated using the formula: F=AUCp.o./AUCi.v.×100% . Statistical analyses were performed using OriginPro 8.6 software. Paired sample or student’s t-test, as well as one-way ANOVA, were employed to compare the means of two or three groups, with a significance level set at p < 0.05.

[1] = PPB assay by ultrafiltration, human plasma; format: in vitro ADME, humans
Experimental: The PPB of ammoxetine was determined using the ultrafiltration method. Triplicate samples of rat, dog, or human plasma were spiked with ammoxetine at three final concentrations (50, 150, and 450 ng/mL). The spiked plasma samples were then incubated in a 37°C air-bath shaker for 1 h until equilibrium was reached. After incubation, 400 μL of the plasma samples were transferred to pre-saturated ultrafiltration devices. These devices were subsequently centrifuged at 13,800×g and 20°C for 20 min to separate the unbound ammoxetine. 100 μL of the test samples were taken and mixed with 100 μL of the IS, L-phencynonate (50 ng/mL), and 300 μL of methanol. Following centrifugation at 13,800×g for 10 min, the supernatants were used to determine the total and free concentrations of ammoxetine in the plasma (C t , C f ) using an LC-MS-MS method. The PPB rate (%) of ammoxetine was calculated by dividing (C t −C f ) by C t .

Structure (SMILES): CNCC[C@H](Oc1cccc2c1OCO2)c1cccs1 [ammoxetine]
- Transformation ratio% (CYP 2C19): 26.27±1.85% and 26.27%
- residuary concentration of ammoxetine, Mean±SD (CYP 2C19): 5.05±0.13
- AUC(0-inf) (PK study in rats; SD, 8 mg/kg single oral dose): 1370 ng·h/mL
- AUC(0-t) (PK study in rats; SD, 8 mg/kg single oral dose): 1370 ng·h/mL
- Cmax (PK study in rats; SD, 8 mg/kg single oral dose): 287 ± 50.8 ng/mL
- CL/F (PK study in rats; SD, 8 mg/kg single oral dose): 100 mL/min/kg
- MRT last (PK study in rats; SD, 8 mg/kg single oral dose): 4.38 ± 0.47 h
- MRT inf (PK study in rats; SD, 8 mg/kg single oral dose): 4.49 ± 0.44 h
- Tmax (PK study in rats; SD, 8 mg/kg single oral dose, read-out: Tmax): 0.75 ± 0.27 h
- Vd/F (PK study in rats; SD, 8 mg/kg single oral dose): 24.4 ± 4.48 L/kg
- half-life (PK study in rats; SD, 8 mg/kg single oral dose): 2.87 ± 0.59 h
- AUC(0-inf) (PK study in rats; SD, 20 mg/kg single oral dose): 3400 ng·h/mL
- AUC(0-t) (PK study in rats; SD, 20 mg/kg single oral dose): 3200 ng·h/mL
- Cmax (PK study in rats; SD, 20 mg/kg single oral dose): 400 ± 246 ng/mL
- CL/F (PK study in rats; SD, 20 mg/kg single oral dose): 108 mL/min/kg
- MRT last (PK study in rats; SD, 20 mg/kg single oral dose): 6.73 ± 1.25 h
- MRT inf (PK study in rats; SD, 20 mg/kg single oral dose): 8.57 ± 3.58 h
- Tmax (PK study in rats; SD, 20 mg/kg single oral dose, read-out: Tmax): 1.58 ± 1.39 h
- Vd/F (PK study in rats; SD, 20 mg/kg single oral dose): 53.5 ± 29 L/kg
- half-life (PK study in rats; SD, 20 mg/kg single oral dose): 5.61 ± 2.59 h
- AUC(0-inf) (PK study in rats; SD, 50 mg/kg single oral dose): 12900 ng·h/mL
- AUC(0-t) (PK study in rats; SD, 50 mg/kg single oral dose): 11000 ng·h/mL
- Cmax (PK study in rats; SD, 50 mg/kg single oral dose): 987 ± 362 ng/mL
- CL/F (PK study in rats; SD, 50 mg/kg single oral dose): 72.3 mL/min/kg
- MRT last (PK study in rats; SD, 50 mg/kg single oral dose): 7.74 ± 0.52 h
- MRT inf (PK study in rats; SD, 50 mg/kg single oral dose): 11.8 ± 7.34 h
- Tmax (PK study in rats; SD, 50 mg/kg single oral dose, read-out: Tmax): 3.83 ± 2.7 h
- Vd/F (PK study in rats; SD, 50 mg/kg single oral dose): 40.3 ± 16.4 L/kg
- half-life (PK study in rats; SD, 50 mg/kg single oral dose): 7.51 ± 5.7 h
- Tmax (PK study in rats; Sprague-Dawley (SD), oral 8, 20 and 50 mg/kg, read-out: Tmax values, range): 0.75 to 3.83 h
- fraction unbound at 1 h, 50 ng/mL ([1]; 50 ng/mL, read-out: Percentage of ammoxetine-protein binding rate (%) (converted)): 0.415
- fraction unbound at 1 h, 150 ng/mL ([1]; 150 ng/mL, read-out: Percentage of ammoxetine-protein binding rate (%) (converted)): 0.503
- fraction unbound at 1 h, 450 ng/mL ([1]; 450 ng/mL, read-out: Percentage of ammoxetine-protein binding rate (%) (converted)): 0.45
- fraction unbound at 1 h ([1]; approximate range over 50-450 ng/mL, read-out: PPB rate): 0.4 to 0.5
